According to US6906205B2, “Spiro and dispiro 1,2,4-trioxolane antimalarials” (Medicines for Malaria Venture MMV, priority 2002, dated 2005):

How the values were obtained:
P. berghei ANKA strain [1] = assay: prophylactic activity, single 100 mg/kg po dose before infection; format: in vivo, Plasmodium berghei; settings: reduction of parasitemia day 3 post-infection
Method: (§1) Moro NMRI male mice (Fü Albino specific pathogen free) weighing 18±2 g were infected intravenously (i.v.) with 2×10^7 P. berghei ANKA strain-infected erythrocytes from donor mice on day 0 of the experiment. From donor mice with circa 30% parasitemia, heparinized blood was taken and diluted in physiological saline to 10^8 parasitized erythrocytes per ml. An aliquot (0.2 ml) of this suspension was injected i.v. into experimental and control groups of mice. In untreated control mice, parasitemia rose regularly to 40 to 50% by day 3 post-infection and 70 to 80% by day 4 post-infection. The mice died between days 5 and 7 post-infection. Throughout the experiments, mice were kept in groups of three or five animals in Makrolon type II cages in an air-conditioned animal room at 22 to 23° C. A diet with p-aminobenzoic acid (PABA) of 45 mg (NAFAG FUTTER© food N^o 9009 PAB-45) per kg of body weight, and tap water is available ad libitum.
(§2) OZ compounds were prepared at an appropriate concentration, either as a solution or a suspension containing SSV (0.5% w/v CMC, 0.5% v/v benzyl alcohol, 0.4% v/v Tween 80, and 0.9% w/v sodium chloride in water). They were administered per os (p.o.) in a total volume of 0.01 ml per gram of mouse. The activity of the compound was determined by a variety of methods outlined in subsequent sections. Survival time was also recorded, and survival to day 30 post-infection was considered to be a cure.
Prophylactic activities of the compounds were compared after administering po single dose of 100 mg/kg to different groups of five animals at various times before infection. All groups including an untreated control group, were then infected at the same time. Parasitemia was determined for each animal on day 3 post-infection, and percent of reduction of the level of parasitemia compared to levels for animals given no drug is determined.

[2] = test system: Schistosoma mansoni 21-day-old schistosomules; assay: effect on 21-day-old schistosomules in mice; format: in vivo; settings: single 200 mg/kg per os, female mice
Method: All groups were killed 4 weeks after treatment and the liver and intestine were removed and separated. The liver and intestine were compressed and alive male and female worms could be seen and counted. The effect of the compounds was evaluated by mean total and female worm burden.

Schistosoma japonicum = assay: effect in mice infected with Schistosoma japonicum; format: in vivo; settings: age of worm 35 days, 400 mg/kg x 1
P. berghei ANKA strain [3] = assay: treatment: 3x3 mg/kg and 3x1 mg/kg po divided doses in infected mice; format: in vivo, Plasmodium berghei; settings: for Activity (%) p.o. SSV: percent reduction of parasitemia day 4
Method: as §1, §2
The second experiment consists of administration of divided 3×3 mg/kg and 3×1 mg/kg po doses administered on days 1, 2, and 3 post-infection. On day 4 post-infection, blood smears of all animals were prepared and stained with Giemsa. Parasitemia was determined microscopically, and the difference between the mean value of the control group (taken as 100%) and those of the experimental groups was calculated and expressed as percent reduction. Compounds were administered orally in the SSV vehicle.

[4] = test system: ANKA strain of Plasmodium berghei; assay: single dose ED50/ED90/ED99 determinations in infected mice; format: in vivo; settings: single dose po in SSV, mice, percent reduction in parasitemia on day three post-infection
Summary of the method: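 Mice (Moro SPF or NMRI, n=3 per group) infected with P. berghei ANKA received a single dose on day 1 post-infection, vehicle 0.5% CMC/0.5% benzyl alcohol/0.4% Tween 80/0.9% NaCl in water. Read-out is percent reduction in parasitemia on day 3; ED values by nonlinear fitting.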

[5] = test system: Schistosoma mansoni adult schistosomes (49-day-old); assay: effect on adult schistosomes (49-day-old) in mice; format: in vivo; settings: single 400 mg/kg per os
Method: Mice were infected with 100 Schistosoma mansoni cercariae […]. Each group was treated per os with OZ compounds at single doses of 200, 400, and 600 mg/kg. […] All groups were killed 4 weeks after treatment and the liver and intestine were removed and separated. The liver and intestine were compressed and alive male and female worms could be seen and counted.

P. berghei ANKA strain [6] = assay: treatment: 3x10 mg/kg p.o. divided dose vs 1x30 mg/kg po single dose in infected mice; format: in vivo, Plasmodium berghei; settings: for Activity (%) p.o. SSV: percent reduction of parasitemia day 4; for Cures: 1 × 30 mg/kg, survival to day 30 post-infection = cure, cured/treated mice
Method: Moro NMRI male mice (Fü Albino specific pathogen free) weighing 18±2 g were infected intravenously (i.v.) with 2×10^7 P. berghei ANKA strain-infected erythrocytes from donor mice on day 0 of the experiment. From donor mice with circa 30% parasitemia, heparinized blood was taken and diluted in physiological saline to 10^8 parasitized erythrocytes per ml. An aliquot (0.2 ml) of this suspension was injected i.v. into experimental and control groups of mice. […] Throughout the experiments, mice were kept in groups of three or five animals in Makrolon type II cages in an air-conditioned animal room at 22 to 23° C.
They were administered per os (p.o.) in a total volume of 0.01 ml per gram of mouse. The activity of the compound was determined by a variety of methods outlined in subsequent sections. Survival time was also recorded, and survival to day 30 post-infection was considered to be a cure.
The first experiment conducted consisted of administration of a divided 3×10 mg/kg p.o. dose administered on days 1, 2, and 3 post-infection vs. a single 1×30 mg/kg po dose administered on day 1 post-infection. On day 4 post-infection, blood smears of all animals were prepared and stained with Giemsa. […] Compounds were administered orally in the SSV vehicle.

[7] = single 100 mg/kg po 24 h before infection
[8] = 3 × 1 mg/kg days 1, 2, 3 post-infection
[9] = 3 × 3 mg/kg days 1, 2, 3 post-infection
[10] = single 100 mg/kg po 48 h before infection
[11] = single 100 mg/kg po 72 h before infection
[12] = 1 × 30 mg/kg single dose day 1 post-infection
[13] = 3 × 10 mg/kg days 1, 2, 3 post-infection

| SMILES | Prophylactic Activity (%) (P. berghei ANKA strain [1]; [7]) | Prophylactic Activity (%) (P. berghei ANKA strain [1]; single 100 mg/kg po at 0 h) | Activity (%) p.o. SSV (P. berghei ANKA strain [3]; [8]) [%] | Activity (%) p.o. SSV (P. berghei ANKA strain [3]; [9]) [%] | Prophylactic Activity (%) (P. berghei ANKA strain [1]; [10]) | Prophylactic Activity (%) (P. berghei ANKA strain [1]; [11]) | Survival (days) p.o. SSV (P. berghei ANKA strain [6]; [12]) [days] | Activity (%) p.o. SSV (P. berghei ANKA strain [6]; [12]) [%] | Cures (P. berghei ANKA strain [6]) | Survival (days) p.o. SSV (P. berghei ANKA strain [6]; [13]) [days] | Activity (%) p.o. SSV (P. berghei ANKA strain [6]; [13]) [%] | Survival (days) p.o. SSV (P. berghei ANKA strain [3]; [8]) [days] | Survival (days) p.o. SSV (P. berghei ANKA strain [3]; [9]) [days] | also measured |
| --- | --- | --- | --- | --- | --- | --- | --- | --- | --- | --- | --- | --- | --- | --- |
| CO[C@H]1O[C@@H]2O[C@@]3(C)CC[C@H]4[C@H](C)CC[C@@H]([C@H]1C)[C@@]24OO3 [AM, artemether, reference compound] | 0 | 100 | 51 | 86 |  |  |  |  |  |  |  |  |  | % reduction of schistosomule growth at day 21 after per os application of 200 mg/kg, FWR (%) [2]: (n4) 85%; % reduction of schistosomule growth at day 21 after per os application of 200 mg/kg, TWR (%) [2]: (n4) 85%; FWRR/% (female worm reduction rate) (Schistosoma japonicum): 71%; Mice without ♀ worm (Schistosoma japonicum): 0/7; WRR/% (worm reduction rate) (Schistosoma japonicum): 62%; MTWB/x ± SD (mean total worm burden) (Schistosoma japonicum; control 26.6 ± 4.2): 10.1 ± 4.4; ED90 [4]: 4.2 mg/kg; ED99 [4]: 7.1 mg/kg; % reduction of adult worms growth at day 49 after per os application of 400 mg/kg, TWR (%) [5]: 53% |
| CS(=O)(=O)O.NCC1CCC2(CC1)OOC1(O2)C2CC3CC(C2)CC1C3 (centres unmarked) [compound 209] | 100 | 100 | 99.51 | 100 | 99.9 | 99.92 | >30 | 100 | 0/5 | >30 | 100 | 9.4 | 16.4 |  |
| CS(=O)(=O)O.NCC(=O)NCC1CCC2(CC1)OOC1(O2)C2CC3CC(C2)CC1C3 (centres unmarked) [compound 271] | 100 | 100 | 87 | 99.99 | 99.98 | 99.89 | 14 | 99.97 | 0/5 | 27.8 | 100 | 8.8 | 16.2 |  |
| CC(C)(N)CNC(=O)CC1CCC2(CC1)OOC1(O2)C2CC3CC(C2)CC1C3.Cc1ccc(S(=O)(=O)O)cc1 (centres unmarked) [compound 277] | 25 | 100 | 83 | 100 | 7 | 9 | 10.4 | 99.92 | 0/5 | 27.6 | 100 | 9.4 | 14 |  |
| Cc1ccc(S(=O)(=O)O)cc1.O=C(CC1CCC2(CC1)OOC1(O2)C2CC3CC(C2)CC1C3)N1CCNCC1 (centres unmarked) [compound 279] | 97 | 100 | 83 | 100 | 27 | 14 | 14.8 | 99.95 | 0/5 | 25.4 | 100 | 8.8 | 14.8 |  |
